Results reported in patent US20240317722A1, “HETEROARYL-3-PIPERIDINEDIONE COMPOUND AND USE THEREOF” (Medshine Discovery Inc., priority 2021, published 2024).

Assay: Pharmacokinetics of the compound in rats
Format: in vivo, SD rats
Description: In this study, SD male rats were selected as the test animals, and the LC/MS/MS method was used to quantitatively determine the drug concentration at different time points in the plasma of rats intravenously or orally administered the test compound, so as to evaluate the pharmacokinetic profile of the test compound in rats.
Sprague Dawley (SD) rats (male, 200-300 g, 7-10 weeks old, Beijing Vital River).
A clear solution or suspension of the test compound was intravenously injected into SD rats (fasted overnight) via tail or given to SD rats (fasted overnight) by gavage. For intravenous injection administration, blood was collected from the jugular vein at 0 h (before administration) and 0.083, 0.25, 0.5, 1, 2, 4, 6, 8, and 24 h after administration. Each sample was collected about 0.25 mL. Heparin sodium was added to anti-coagulate. Blood samples were collected and placed on wet ice, and centrifuged within 1 hour to separate the plasma (centrifugation conditions: 6000 g, 3 minutes, 2-8° C.). Plasma samples were stored in a −80° C. refrigerator before analysis; For oral gavage administration, blood was collected from the jugular vein at 0 h (before administration) and 0.083, 0.25, 0.5, 1, 2, 4, 6, 8, and 24 h after administration. Each sample was collected about 0.25 mL. Heparin sodium was added to anti-coagulate. Blood samples were collected and placed on wet ice, and centrifuged within 1 hour to separate the plasma (centrifugation conditions: 6000 g, 3 minutes, 2-8° C.). Plasma samples were stored in an −80° C. refrigerator before analysis. Through blood drug concentration data at different time points, Phoenix WinNonlin8.2.0 was used to calculate pharmacokinetic parameters, providing parameters such as AUC0-t, AUC0-∞, MRT0-∞, Cmax, Tmax, and T1/2, etc. and their mean and standard deviation.

[1] = administration by gavage (10 mg/kg)

Area under the plasma concentration-time curve (0-inf) [1]: 264.34 µM·h | Peak concentration [1]: 14.4 µM | Time to peak [1]: 5.33 h | Area under the plasma concentration-time curve (0-inf) (intravenous injection (2 mg/kg)): 464.10 µM·h | bioavailability (male, Sprague-Dawley, rat, plasma, PO 10 mg/kg vs IV 2 mg/kg, read-out: Bioavailability F): 11.4% | clearance (male, Sprague-Dawley, rat, plasma, intravenous injection (2 mg/kg)): 0.145 mL/min/kg | Vd (male, Sprague-Dawley, rat, plasma, intravenous injection (2 mg/kg), read-out: Apparent volume of distribution): 0.121 L/kg | half-life (male, Sprague-Dawley, rat, plasma, intravenous injection (2 mg/kg), read-out: Elimination half-life (converted)): 11.1 h
Structure (SMILES): COCCOc1cc(NC(=O)NCc2ccc3c(C4CCC(=O)NC4=O)coc3c2)cc(Cl)c1C (centres unmarked) [WX005]
